Data reported in ChEMBL document CHEMBL6087454, “Identification of Novel Organo-Se BTSA-Based Derivatives as Potent, Reversible, and Selective PPARγ Covalent Modulators for Antidiabetic Drug Discovery” (J Med Chem, 2025).
pIC50, pKi: −log10 of the molar value. Activity calls are given as the source filed them. The rule behind the calls is not given here.

How the values were obtained:
[1] = molecular target: T1, Peroxisome proliferator-activated receptor gamma (Homo sapiens, UniProt P37231); test: Displacement of fluormone pan-PPAR green from recombinant GST-tagged human PPAR-gamma ligand binding domain (E235 to Y505 residues) extracted from Escherichia coli BL21 (DE3) cells by TR-FRET assay
T1 sequence (P37231 whole entry): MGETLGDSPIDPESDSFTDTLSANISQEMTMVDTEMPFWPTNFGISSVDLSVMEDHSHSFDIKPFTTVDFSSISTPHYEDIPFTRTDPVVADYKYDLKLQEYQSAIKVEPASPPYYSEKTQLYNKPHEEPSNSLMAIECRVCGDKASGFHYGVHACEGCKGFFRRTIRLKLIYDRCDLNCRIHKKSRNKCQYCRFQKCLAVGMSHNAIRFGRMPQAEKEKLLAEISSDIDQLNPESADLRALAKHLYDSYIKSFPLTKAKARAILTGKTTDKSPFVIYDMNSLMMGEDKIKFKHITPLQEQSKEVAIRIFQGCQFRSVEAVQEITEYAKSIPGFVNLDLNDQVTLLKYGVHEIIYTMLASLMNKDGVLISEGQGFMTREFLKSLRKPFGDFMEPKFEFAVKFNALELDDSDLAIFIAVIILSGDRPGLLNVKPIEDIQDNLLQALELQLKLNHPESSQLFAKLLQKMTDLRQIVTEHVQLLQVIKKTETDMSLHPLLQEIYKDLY

[2] = molecular target: T1, Peroxisome proliferator-activated receptor gamma; test: Binding affinity to recombinant GST-tagged human PPAR-gamma ligand binding domain (E235 to Y505 residues) extracted from Escherichia coli BL21 (DE3) cells assessed as inhibition constant in presence of fluormone pan-PPAR green tracer by TR-FRET assay
[3] = molecular target: T2, Peroxisome proliferator-activated receptor gamma (Homo sapiens) (UniProt P37231); test: Covalent binding affinity to recombinant PPAR-gamma ligand binding domain (unknown origin) at Cys285 residue at 0.4 uM incubated for 30 mins by rhodamine-maleimide staining based SDS-PAGE analysis
T2 sequence (whole entry): T1 sequence (P37231 whole entry)

3T3-L1 = test: Induction of adipocyte differentiation in mouse 3T3-L1 cells assessed as lipid accumulation at 1 uM measured after 48 hrs in presence of 1-oxido-1-(4-(tosyloxy)phenyl)-1lambda4-benzo[d][1,3,2]thiaselenazol-5-yl 4-methylbenzenesulfonate by Oil red O staining based inverted microscopic analysis; assay type: functional, cell-based
[4] = Toxicity in male db/db mouse model assessed as hepatomegaly in liver at 10 mg/kg/day, po administered for 4 weeks; assay type: organism-based; conditions: in vivo, 672 h
[5] = Toxicity in male db/db mouse model assessed as lipid accumulation in liver at 10 mg/kg/day, po administered for 4 weeks; assay type: organism-based; conditions: in vivo, 672 h
[6] = Toxicity in male db/db mouse model assessed as increase in liver weight at 10 mg/kg/day, po administered for 4 weeks; assay type: organism-based; conditions: in vivo, 672 h
[7] = Toxicity in male db/db mouse model assessed as increase in serum ALT level at 10 mg/kg/day, po administered for 4 weeks by ELISA; assay type: organism-based; conditions: in vivo, 672 h
[8] = Toxicity in male db/db mouse model assessed as increase in serum AST level at 10 mg/kg/day, po administered for 4 weeks by ELISA; assay type: organism-based; conditions: in vivo, 672 h
[9] = Toxicity in male db/db mouse model assessed as increase in blood cholesterol level at 10 mg/kg/day, po administered for 4 weeks by ELISA; assay type: organism-based; conditions: in vivo, 672 h
[10] = Toxicity in male db/db mouse model assessed as increase in blood triglyceride level at 10 mg/kg/day, po administered for 4 weeks by ELISA; assay type: organism-based; conditions: in vivo, 672 h
[11] = Toxicity in male db/db mouse model assessed as increase in lipid accumulation in liver at 10 mg/kg/day, po administered for 4 weeks by Oil red O staining based analysis; assay type: organism-based; conditions: in vivo, 672 h
[12] = Toxicity in male db/db mouse model assessed as increase in white adipocytes size at 10 mg/kg/day, po administered for 4 weeks by H and E staining based analysis; assay type: organism-based; conditions: in vivo, 672 h
[13] = Toxicity in male db/db mouse model assessed as increase in brown adipocytes size at 10 mg/kg/day, po administered for 4 weeks by H and E staining based analysis; assay type: organism-based; conditions: in vivo, 672 h

SMILES	pIC50 [1]	pKi [2]	other results
CS1(=O)=N[Se]c2cc(Cl)ccc21 (stereo not given)	< 4.30	< 4.74	–
COc1cccc(S2(=O)=N[Se]c3ccc(OC)cc32)c1 (stereo not given)	5.48	5.93	–
CCS1(=O)=N[Se]c2ccccc21 (stereo not given)	< 4.30	< 4.74	–
O=[N+]([O-])c1ccc(S2(=O)=N[Se]c3cc([N+](=O)[O-])ccc32)cc1 (stereo not given)	6.17	6.62	–
COC(=O)c1ccc2c(c1)[Se]N=S2(C)=O (stereo not given)	< 4.30	< 4.74	–
CS1(=O)=N[Se]c2ccccc21 (stereo not given)	< 4.30	< 4.74	–
CN(CCOc1ccc(CC2SC(=O)NC2=O)cc1)c1ccccn1 (stereo not given) [ROSIGLITAZONE]	–	–	Activity [3]: inactive; Activity (3T3-L1): inactive; Activity [4]: Toxic; Activity [5]: Toxic; Activity [6]: Toxic; Activity [7]: Toxic; Activity [8]: Toxic; Activity [9]: Toxic; Activity [10]: Non-toxic; Activity [11]: Toxic; Activity [12]: Toxic; Activity [13]: Toxic
O=S1(c2ccccc2)=N[Se]c2ccccc21 (stereo not given)	< 4.30	< 4.74	–
CCCc1ccc(S2(=O)=N[Se]c3cc(CCC)ccc32)cc1 (stereo not given)	5.68	6.12	–
O=S1(CCl)=N[Se]c2ccccc21 (stereo not given)	< 4.30	< 4.74	–
O=S(=O)(Oc1ccc(S2(=O)=N[Se]c3cc(OS(=O)(=O)C(F)(F)F)ccc32)cc1)C(F)(F)F (stereo not given)	5.61	6.05	–
O=S1(C2CC2)=N[Se]c2ccccc21 (stereo not given)	< 4.30	< 4.74	–
Cc1ccc2c(c1)[Se]N=S2(C)=O (stereo not given)	< 4.30	< 4.74	–
Cc1cc(C)cc(S2(=O)=N[Se]c3c(C)cc(C)cc32)c1 (stereo not given)	4.42	4.86	–
Cc1ccc(S2(=O)=N[Se]c3cc(C)ccc32)cc1 (stereo not given)	4.90	5.34	–
CS1(=O)=N[Se]c2ccc(Cl)cc21 (stereo not given)	< 4.30	< 4.74	–
Cc1cccc(S2(=O)=N[Se]c3ccc(C)cc32)c1 (stereo not given)	5.08	5.53	–
CC(C)(C)c1ccc(S2(=O)=N[Se]c3cc(C(C)(C)C)ccc32)cc1 (stereo not given)	5.91	6.35	–
O=S1(c2ccc(Br)cc2)=N[Se]c2cc(Br)ccc21 (stereo not given)	5.83	6.28	–
Cc1ccccc1S1(=O)=N[Se]c2cccc(C)c21 (stereo not given)	4.41	4.85	–
O=S1(c2cccc(Cl)c2)=N[Se]c2ccc(Cl)cc21 (stereo not given)	6.19	6.64	–
CS1(=O)=N[Se]c2cccc(Cl)c21 (stereo not given)	< 4.30	< 4.74	–
O=S1(c2ccc(-c3ccccc3)cc2)=N[Se]c2cc(-c3ccccc3)ccc21 (stereo not given)	5.77	6.22	–
O=S1(c2ccc(Cl)cc2)=N[Se]c2cc(Cl)ccc21 (stereo not given)	4.39	4.84	–
O=S1(c2ccc(C(F)(F)F)cc2)=N[Se]c2cc(C(F)(F)F)ccc21 (stereo not given)	5.76	6.21	–
